Results as given in US20230139025A1, “ANTIOXIDANT FOR USE IN TREATMENT FOR RIBE” (Institute of Hematology and Blood Diseases Hospital, CAMS & …, priority 2021, published 2023).

Legend:
HSPCs (CD34+ cells) = experiment: γ-H2AX protein by Western blot after cytokine addition to in vitro culture system; type: cell-based, human; settings: cytokine added to in vitro culture system, FIG. 6H
Method: (A) Flow cytometric analysis of fold change of ROS levels by DCF-DA staining in human CD34^+ cells of in vitro RIBE model; (B) Western blot verified the expression of related signaling pathway at the protein levels.
For the in vitro RIBE model, we cocultured CB-CD34^+ cells with 10 Gy irradiated or nonirradiated human BM cells using a transwell system. After 17 hours of coculture, the CD34^+ cells in the insert (in vitro bystander cells) were collected for subsequent experiments (FIG. 2).
Cytokines may exert multiple functions involving stress and inflammatory responses, which are also associated with RIBE. We observed several cytokines including IL-1, IL-6, IL-8, TNF-α, etc., were increased after irradiation (FIG. 6F). […] Moreover, we added IL-1α or IL-1ra to the in-vitro culture system and then measured the γ-H2AX protein by Western blot.

HSPCs = experiment: ROS levels of HSPCs in cytokine-treated groups; type: cell-based, human
[1] = test system: in vitro bystander human HSPCs; experiment: Transplantation of in vitro antioxidant-treated bystander human CD34+ cells into NOG mice; type: in vivo; settings: for HPC (CD34+CD38+) engraftment in BM: antioxidant treatment in vitro, FIG. 9C
From the text: (A) Collected human CD34^+ cells from FIG. 8(A) were transplanted into NOG mice. Mean human cell engraftment (left) after human CD34^+ cells collected from FIG. 8(A) transplanted into NOG mice and bars represent the fold difference of engraftment levels from each group (right, n = 6 to 8 per group). (B-C) Frequency of human CD34^+CD38^- cells (B) and CD34^+CD38^+ cells (C) in the BM of recipient; (D) Mean engraftment level of human cells in the spleen of recipients; and (E) Number of hematopoietic clones formed by human CD34^+ cells of each group (^∗p < 0.05, ^∗∗p <[…] 0.01, ^∗∗∗p < 0.001). For the in vitro RIBE model, we cocultured CB-CD34^+ cells with 10 Gy irradiated or nonirradiated human BM cells using a transwell system. After 17 hours of coculture, the CD34^+ cells in the insert (in vitro bystander cells) were collected for subsequent experiments (FIG. 2). Female NOG mice were irradiated at a dose of 2.0 Gy one day before transplantation. The homing human CD34^+ cells were transplanted into recipients at a dose of 5,000 cells/mouse intravenously. For serial transplantations, 1×10^7 whole BM cells from each primary recipient were intravenously transplanted into secondary recipient mice that were exposed to sublethal irradiation (2.0 Gy). Next, we asked whether the pharmacological inhibition of ROS elevation could protect human HSPCs from functional degradation. We used three antioxidants: N-acetyl-L-cysteine (NAC), sulforaphane (SF) and resveratrol (Res), to eliminate excessive ROS from bystander human HSPCs in vitro. For the in vitro RIBE, the BM cells were treated with NAC, SF or Res for 30 minutes before irradiation, and the antioxidants continued to exist in the coculture system until the CB CD34^+ cells were collected for analysis and some were transplanted into sublethally irradiated NOG mice intravenously (FIG. 7).

[2] = test system: in vivo bystander human HSPCs; experiment: In vivo RIBE model with antioxidant treatment, transplantation of homing human CD34+ cells into NOG mice; settings: FIG. 11C
Method: NOG mice were given antioxidants for 7 days before irradiation.
For the in vivo RIBE model, CD34^+ cells purified from human cord blood (CB) were intravenously injected into 10 Gy irradiated (RIBE group) or nonirradiated (Control group) NOD/Shi-scid/IL-2Rγ^null (NOG) mice separately. After 17 hours, homing human CD34^+ cells (in vivo bystander cells) from recipients were individually detected or sorted for subsequent experiments (FIG. 1).
For the in vivo RIBE, the mice were treated with NAC, SF or Res for 7 days. CB CD34^+ cells were injected into nonirradiated or 10 Gy irradiated NOG mice in either the control, RIBE or RIBE with antioxidant treatment groups. After 17 hours, the homing human CD34^+ cells were sorted individually and transplanted into sublethally irradiated NOG mice (FIG. 10).

Molecule: IL-1ra: cytokine added to the in-vitro culture system
- DNA damage of HSPCs (γ-H2AX protein level) (HSPCs (CD34+ cells)): can slightly increase DNA damage of bystander HSPCs
- ROS levels of HSPCs (HSPCs): did not change

Molecule: Oc1ccc(C=Cc2cc(O)cc(O)c2)cc1 [Res, resveratrol]
- myeloid and erythroid engraftment ([1]; antioxidant administration in vitro, BM, vs RIBE group): significantly higher myeloid and erythroid engraftment than the RIBE group
- HPC (CD34+CD38+) engraftment in BM [1]: could improve HPC engraftment
- HPC (CD34+CD38+) engraftment in BM [2]: could improve HPC engraftment in vivo

Molecule: C[S+]([O-])CCCCN=C=S (centres unmarked) [SF, sulforaphane]
- HPC (CD34+CD38+) engraftment in BM [1]: could improve HPC engraftment

B1: IL-1α: cytokine added to the in-vitro culture system (protein, UniProt P01583 113-271, looked up)
Interleukin-1 alpha: SAPFSFLSNVKYNFMRIIKYEFILNDALNQSIIRANDQYLTAAALHNLDEAVKFDMGAYKSSKDDAKITVILRISKTQLYVTAQDEDQPVLLKEMPEIPKTITGSETNLLFFWETHGTKNYFTSVAHPNLFIATKQDYWVCLAGGPPSITDFQILENQA
- DNA damage of HSPCs (γ-H2AX protein level) (HSPCs (CD34+ cells)): could loosen DNA damage of HSPCs both in the control and RIBE groups
- ROS levels of HSPCs (HSPCs): did not change
